What all share (assay type): in vivo
In test [1] the test system is velvetleaf (Abutilon theophrasti MEDIC.). The test can be described thus: Test Example 1, foliar treatment in upland pots. The following applies: 20th to 22nd day after application, visual, read-out: Growth inhibition rate (%) Velvetleaf.
Test [2] concerns green foxtail (Setaria viridis L.). The test can be described thus: Test Example 1, foliar treatment in upland pots. The following applies: 20th to 22nd day after application, visual, read-out: Growth inhibition rate (%) Green foxtail. Summed up: (§1)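 Plants grown from seed in upland soil pots were sprayed over the foliage at green foxtail 1.5–3.0, rice 1.2–2.5, corn 2.0–3.3 leaf stage, soybean primary leaf to 0.3 leaf stage. Wettable powder or EC formulations were diluted in water at 500 L/ha with 0.1 vol% spreader. Growth inhibition (0–100%) was scored visually 20–22 days later.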

Test [3] relates to rice (Oryza sativa L.). Kind of test: Test Example 1, foliar treatment in upland pots. The following applies: 20th to 22nd day after application, visual, read-out: Growth inhibition rate (%) Rice. In a few lines:
as §1

Test [4] relates to crabgrass (Digitaria sanguinalis L.). The test can be described thus: Test Example 1, foliar treatment in upland pots. The following applies: 20th to 22nd day after application, visual, read-out: Growth inhibition rate (%) Crabgrass.
Test [5] concerns corn (Zea mays L.). The test can be described thus: Test Example 1, foliar treatment in upland pots. The following applies: 20th to 22nd day after application, visual, read-out: Growth inhibition rate (%) Corn. In a few lines:
as §1

Test [6] deals with redroot pigweed (Amaranthus retroflexus L.). The test can be described thus: Test Example 1, foliar treatment in upland pots. The following applies: 20th to 22nd day after application, visual, read-out: Growth inhibition rate (%) Redroot pigweed.
Test [7] concerns barnyardgrass (Echinochloa crus-galli L.). The test can be described thus: Test Example 1, foliar treatment in upland pots. The following applies: 20th to 22nd day after application, visual, read-out: Growth inhibition rate (%) Barnyardgrass.
Test [8] deals with velvetleaf (Abutilon theophrasti MEDIC.). The test can be described thus: Test Example 2, soil application on the day after sowing. The settings on record: 21st to 22nd day after application, visual, read-out: Growth inhibition rate (%) Velvetleaf. Summed up:
(§2)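 Upland soil in 1/170,000 ha pots was sown, and the day after sowing, compound formulated as wettable powder or emulsifiable concentrate was diluted in water equivalent to 500 L/ha and sprayed onto the soil. Growth inhibition was scored visually at 21–22 days, 0% (untreated) to 100% (complete kill).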

Test [9] concerns wheat (Triticum spp.). The test is described as above. The settings on record: 21st to 22nd day after application, visual, read-out: Growth inhibition rate (%) Wheat. In a few lines: as §2
The test system of test [10] is green foxtail (Setaria viridis L.). The test is described as above. The settings on record: 21st to 22nd day after application, visual, read-out: Growth inhibition rate (%) Green foxtail. Summed up: as §2
Test [11] concerns rice (Oryza sativa L.). The description is as above. The settings on record: 21st to 22nd day after application, visual, read-out: Growth inhibition rate (%) Rice. Summed up: as §2
Test [12] concerns crabgrass (Digitaria sanquinalis L.). Described as above. The settings on record: 21st to 22nd day after application, visual, read-out: Growth inhibition rate (%) Crabgrass. Summed up:
as §2

Test [13] concerns soybean (Glycine max Merr.). Described as above. The settings on record: 21st to 22nd day after application, visual, read-out: Growth inhibition rate (%) Soybean. In a few lines: as §2
Test [14] concerns corn (Zea mays L.). The test is described as above. The following applies: 21st to 22nd day after application, visual, read-out: Growth inhibition rate (%) Corn. In a few lines:
as §2

The test system of test [15] is redroot pigweed (Amaranthus retroflexus L.). The test is described as above. The settings on record: 21st to 22nd day after application, visual, read-out: Growth inhibition rate (%) Redroot pigweed. In a few lines: as §2
The subject of test [16] is barnyardgrass (Echinochloa crus-galli L.). The test is described as above. The settings on record: 21st to 22nd day after application, visual, read-out: Growth inhibition rate (%) Barnyardgrass. In a few lines:
as §2

For test [17], the system named is prickly sida (Sida spinosa L.). Described as above. The settings on record: 21st to 22nd day after application, visual, read-out: Growth inhibition rate (%) Prickly sida. Summed up: as §2

For `COCCOc1c(S(C)(=O)=O)ccc(C(=O)c2c(C)nn(C)c2OC(C)OC(=O)OC)c1C` (stereo not shown) [Compound No. 1-6, 1-(4-(3-(2-Methoxyethoxy)-2-methyl-4-(methylsulfonyl)benzoyl)-1,3-dimethyl-1H-pyrazol-5-yloxy)ethyl methyl carbonate], the inhibition at 7 g/ha was found to be 98% in test [1]; 95% in test [2]; 70% in test [3]; 90% in test [4]; 0% in [5]; 90% in test [6]. For the same compound, in test [7], the inhibition at 7 g/ha was 90%. Also, the inhibition at 250 g/ha in [8] was 100%; in test [9] it was 5%; in test [10], 70%; in test [11], 98%; in [12], 100%; in test [13], 0%. The inhibition at 250 g/ha in test [14] was determined as 0%; in test [15] it was 100%; in [16], 100%; in [17], 99%.
`COCCOc1c(S(C)(=O)=O)ccc(C(=O)c2cnn(C(C)C)c2O)c1C` [Compound No. 8-1, (5-Hydroxy-1-isopropyl-1H-pyrazol-4-yl)(3-(2-methoxyethoxy)-2-methyl-4-(methylsulfonyl)phenyl)ketone]: the inhibition at 7 g/ha in [1] worked out at 80%; in test [2], 90%; in test [3] it was 10%; in test [4], 95%; in test [5] it was 0%; in [6], 90%. In addition, the inhibition at 7 g/ha in test [7] amounted to 60%. Further, the inhibition at 250 g/ha came out at 100% in test [8]; 0% in [9]; 100% in [10]; 80% in test [11]; 100% in test [12]; 0% in test [13]. Also, the inhibition at 250 g/ha in test [14] was determined as 0%; in test [15], 100%; in test [16] it was 100%; in test [17], 40%.

Source of the values: US8466089B2, “Pyrazole compounds, process for their production and herbicides containing them” (Ishihara Sangyo Kaisha, Ltd., priority 2008, dated 2013).
